# In US9290515B2, “Cephem derivative having catechol group” (SHIONOGI & CO., LTD., priority 2011, dated 2016):
# Experiments:
# Type in all cases: cell-based
# [1] = system: K. pneumoniae ATCC 700603_SHV18; experiment: MIC by broth microdilution (CLSI), K. pneumoniae ATCC 700603; conditions: Klebsiella pneumoniae, ATCC700603; K. pneumoniae ATCC 700603, SHV-18, ESBL producing strain; 10000 cfu/well; cation-adjusted Mueller Hinton broth with 20 μM human apo-transferrin; read-out: minimum growth inhibition concentration (MIC)
# Description: (§1) Measurement of a minimum growth inhibition concentration (MIC: μg/mL) was performed according to CLSI (Clinical and Laboratory Standards Institute) method, by broth microdilution method, using an inoculation microbe amount of 10000 cfu/well and cation-adjusted Mueller Hinton broth containing human-derived 20 μM apo-transferrin as a test medium.
# [2] = system: A. baumannii SR24396; experiment: MIC by broth microdilution (CLSI), A. baumannii SR24396; conditions: Acinetobacter baumannii, 10000 cfu/well, cation-adjusted Mueller Hinton broth with 20 μM human apo-transferrin, read-out: minimum growth inhibition concentration (MIC)
# Description: as §1
# [3] = system: S. maltophilia SR21970(L-1); experiment: MIC by broth microdilution (CLSI), S. maltophilia SR21970; conditions: Stenotrophomonas maltophilia; S. maltophilia SR21970, L-1, MBL producing carbapenem-resistant strain; 10000 cfu/well; cation-adjusted Mueller Hinton broth with 20 μM human apo-transferrin; read-out: minimum growth inhibition concentration (MIC)
# Description: as §1
# [4] = system: E. coli ATCC BAA-196_TEM-10; experiment: MIC by broth microdilution (CLSI), E. coli ATCC BAA-196; conditions: Escherichia coli, ATCCBAA196; E. coli ATCC BAA-196, TEM-10, ESBL producing strain; 10000 cfu/well; cation-adjusted Mueller Hinton broth with 20 μM human apo-transferrin; read-out: minimum growth inhibition concentration (MIC)
# Description: as §1
# [5] = system: P. aeruginosa SR24; experiment: MIC by broth microdilution (CLSI), P. aeruginosa SR24; conditions: Pseudomonas aeruginosa; P. aeruginosa SR24, Ceftazidime-sensitive strain; 10000 cfu/well; cation-adjusted Mueller Hinton broth with 20 μM human apo-transferrin; read-out: minimum growth inhibition concentration (MIC)
# Description: as §1
# [6] = system: P. aeruginosa SR27001(MDRP, IMP-1+); experiment: MIC by broth microdilution (CLSI), P. aeruginosa SR27001; conditions: Pseudomonas aeruginosa; P. aeruginosa SR27001, MDRP, IMP-1, MBL producing carbapenem-resistant strain; 10000 cfu/well; cation-adjusted Mueller Hinton broth with 20 μM human apo-transferrin; read-out: minimum growth inhibition concentration (MIC)
# Description: as §1
# [7] = system: P. aeruginosa SR27060(metallo); experiment: MIC by broth microdilution (CLSI), P. aeruginosa SR27060; conditions: Pseudomonas aeruginosa; P. aeruginosa SR27060, IMP-1, MBL producing carbapenem-resistant strain; 10000 cfu/well; cation-adjusted Mueller Hinton broth with 20 μM human apo-transferrin; read-out: minimum growth inhibition concentration (MIC)
# Description: as §1
MIC [6],SMILES,MIC [1],MIC [2],MIC [3],MIC [4],MIC [5],MIC [7]
> 32 µg/mL,"C[N+]1(CC2=C(C(=O)[O-])N3C(=O)[C@@H](NC(=O)/C(=N\O[C@H](C(=O)[O-])c4ccc(O)c(O)c4)c4csc(N)n4)[C@H]3SC2)CCCC1.[Na+] [Comparative Example compound 1, reference compound]",16 µg/mL,4 µg/mL,> 32 µg/mL,16 µg/mL,8 µg/mL,> 32 µg/mL
0.5 µg/mL,NCC[N+]1(CC2=C(C(=O)[O-])N3C(=O)[C@@H](NC(=O)/C(=N\OC(CNC(=O)c4ccc(O)c(O)c4Cl)C(=O)O)c4csc(N)n4)[C@H]3SC2)CCCC1 (stereo partly shown) [Compound I-7],0.063 µg/mL,≤ 0.031 µg/mL,,0.125 µg/mL,0.125 µg/mL,0.125 µg/mL
8 µg/mL,C[N+]1(CC2=C(C(=O)[O-])N3C(=O)[C@@H](NC(=O)/C(=N\OC(CNC(=O)c4ccc(O)c(O)c4Cl)C(=O)[O-])c4csc(N)n4)[C@H]3SC2)CCCC1.[Na+] (stereo partly shown) [Compound I-8],1 µg/mL,0.063 µg/mL,,0.5 µg/mL,0.125 µg/mL,4 µg/mL
2 µg/mL,Nc1nc(/C(=N/OC(CNC(=O)c2ccc(O)c(O)c2Cl)C(=O)[O-])C(=O)N[C@@H]2C(=O)N3C(C(=O)[O-])=C(C[n+]4cccc5c4CCC5)CS[C@H]23)cs1.[Na+] (stereo partly shown) [Compound I-13],0.5 µg/mL,0.063 µg/mL,> 32 µg/mL,1 µg/mL,0.125 µg/mL,2 µg/mL
,Nc1nc(/C(=N/OC[C@H](NC(=O)c2ccc(O)c(O)c2Cl)C(=O)[O-])C(=O)N[C@@H]2C(=O)N3C(C(=O)[O-])=C(C[N+]45CCC(CC4)CC5)CS[C@H]23)cs1.[Na+] [Compound I-23],8 µg/mL,0.25 µg/mL,8 µg/mL,1 µg/mL,0.125 µg/mL,0.5 µg/mL

SMILES,MIC [6],MIC [1],MIC [2],MIC [3],MIC [4],MIC [5],MIC [7]
"Nc1nc(/C(=N/O[C@H](C(=O)[O-])c2ccc(O)c(O)c2)C(=O)N[C@@H]2C(=O)N3C(C(=O)[O-])=C(C[N+]45CCC(CC4)CC5)CS[C@H]23)cs1.[Na+] [Comparative Example compound 2, reference compound]",> 32 µg/mL,16 µg/mL,16 µg/mL,> 32 µg/mL,32 µg/mL,8 µg/mL,> 32 µg/mL
C[N+]1(CC2=C(C(=O)[O-])N3C(=O)[C@@H](NC(=O)/C(=N\OC(CNC(=O)c4ccc(O)c(O)c4Cl)C(=O)O)c4csc(N)n4)[C@H]3SC2)[C@@H]2CC[C@H]1C[C@@H](N)C2 (stereo partly shown) [Compound I-6],0.25 µg/mL,0.125 µg/mL,≤ 0.031 µg/mL,,0.25 µg/mL,0.125 µg/mL,0.25 µg/mL
Nc1nc(/C(=N/OC(CNC(=O)c2ccc(O)c(O)c2Cl)C(=O)[O-])C(=O)N[C@@H]2C(=O)N3C(C(=O)[O-])=C(C[N+]45CCC(CC4)CC5)CS[C@H]23)cs1.[Na+] (stereo partly shown) [Compound I-9],2 µg/mL,0.125 µg/mL,0.063 µg/mL,1 µg/mL,0.5 µg/mL,0.125 µg/mL,1 µg/mL
